The text below walks through data of PMC3791872 (Bioscience Reports, 2013).

pIC50: −log10 of the molar value.

Usually pIC50 stands for the IC50 on a negative log10 scale, so that one unit is a factor of ten.

In experiment [1] the target is T1, T4 gp41 (Enterobacteria phage T4, UniProt P04530).
T1 sequence (P04530 1-475): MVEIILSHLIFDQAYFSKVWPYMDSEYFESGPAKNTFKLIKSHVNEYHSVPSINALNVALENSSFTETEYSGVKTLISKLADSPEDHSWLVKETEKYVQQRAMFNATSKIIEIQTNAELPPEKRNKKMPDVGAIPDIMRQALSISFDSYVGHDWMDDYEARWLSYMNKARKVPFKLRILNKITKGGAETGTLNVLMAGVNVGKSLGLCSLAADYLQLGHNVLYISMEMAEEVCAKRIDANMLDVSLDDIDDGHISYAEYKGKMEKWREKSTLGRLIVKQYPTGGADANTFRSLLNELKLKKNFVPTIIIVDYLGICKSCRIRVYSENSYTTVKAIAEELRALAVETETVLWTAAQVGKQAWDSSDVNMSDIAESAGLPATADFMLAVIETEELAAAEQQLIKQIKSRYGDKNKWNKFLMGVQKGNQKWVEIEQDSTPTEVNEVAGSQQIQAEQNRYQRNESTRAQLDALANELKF
Briefly: T4 gp41 helicase assay. The class given is biochemical. Particulars: 1 mM, Figure S3. The method, then:
Helicase assays were performed essentially as described. Synthetic replication forks were prepared by annealing oligos 233 and 235 [IDT (Coralville), oligo 233 5′(T)40[…]; oligo 235 5′ […](T)40] and then filling in the recessed 3′-end with [α32P]dATP and unlabelled dNTPs using Klenow Fragment. Briefly, reactions ([…]) were performed in 1× helicase assay buffer [20 mM Tris/HCl (pH 7.5), 10 mM MgOAc, 20% (v/v) glycerol, 100 μM EDTA and 5 mM DTT (dithiothreitol)] and contained a final concentration of 1 nM fork substrate, 5 mM ATP, 40 mM creatine phosphate, […] creatine kinase, 33 μg/ml BSA. Reactions containing Mcm2-7 and Mcm467 were supplemented with 200 mM potassium glutamate. Reactions containing SsoMcm were incubated at 65°C, those containing T4 gp41 were incubated for 30 min at 37°C, and all other reactions were incubated at 37°C for 1 h. The products were separated by 10% (w/v) native PAGE, the resulting gels dried and the radioactivity quantified using a Fuji FLA-5100 phosphoimager. Irrespective of the protein used, all helicase assays contained equal molar helicase concentrations (100 nM, assuming in all cases that the active helicase form is hexameric). Steady-state ATP hydrolysis was assayed as published. In short, reactions were set up essentially as in the helicase assay, with minor exceptions. A non-radiolabelled DNA fork was used, helicase concentration was 100 nM (hexamer) the total ATP concentration was 500 μM and included ~0.5 μCi of [α32P]ATP, and the ATP regeneration system was omitted. Reactions were incubated for 1 h at 37°C and stopped by the addition of SDS. ATP was separated from ADP by PEI (polyethyleneimine) thin layer chromatography, and the ratio of ATP:ADP was quantified using a Fuji FLA-5100 phosphoimager. Based on our prior work, conditions were established to ensure that the results shown are within the linear range of the assay. Protein–ssDNA binding was determined with a double filter-binding assay using an ssDNA probe (oligo 826, 5′[…]) that was 5′-radiolabelled using T4 polynucleotide kinase and [γ32P]ATP [16]. For the double filter-binding assay, the helicase concentration was 150 nM (hexamer) and the ssDNA concentration was 4 nM. For all biochemical assays, helicases were preincubated with inhibitors for 20 min at 37°C unless otherwise indicated. […]
against different helicases
Representative helicase activity assays in the presence of the indicated inhibitor were tested, quantiﬁed and standardized as described in the legend to F igures 2 (A) and (B). All helicases were assayed at 100 nM
ﬁnal concentration (hexamer) with inhibitor preincubation prior to ATP […]
F igure S3 Ciproﬂoxacin poor ly inhibits hexameric helicases un- […]
All inhibitors were used at 1 mM ﬁnal concentration. […]

The test system of experiment [2] is S. cerevisiae ∆erg6 (UPY675). In words: Yeast growth inhibition, 96-well assay, ∆erg6 strain. The class given is cell-based, Saccharomyces cerevisiae.

Turning to `O=C(O)c1cn(C2CC2)c2cc(N3CCNCC3)c(F)cc2c1=O` [Ciprofloxacin, ciprofloxacin, reference compound], the “inhibition of T4 gp41 helicase” value in experiment [1] is reported as “none of the tested helicases were substantially inhibited”. In experiment [2] (Figure 4A), the “growth response of ∆erg6 yeast” value is listed as “demonstrable growth sensitivity”. The pIC50 in experiment [2] (Saccharomyces cerevisiae, ∆erg6 strain, growth over 24 h, value (95% CI), read-out: IC50 Yeast) is 3.23.
